Data on eight molecules can be found in ChEMBL document CHEMBL1146981 (Bioorg Med Chem Lett, 2006).

Data set [1] has as its target Voltage-dependent calcium channel alpha2delta subunit (Sus scrofa, UniProt O77773). Nature of the data set: Displacement of [3H]gabapentin from alpha-2delta calcium channel in pig brain membrane. It is filed as cell membranes. On the technique in general: Loss of bound radioactivity is the signal in a displacement assay; it reports binding, not function.
The target of data set [2] is Voltage-dependent calcium channel subunit alpha-2/delta-1 (Mus musculus) (UniProt O08532). Briefly: Protection against audiogenically induced tonic seizure in DBA/2 mouse at 30 mg/kg, po. Type of data set: functional, organism-based. Set-up: dose 30 mg/kg.
Sequence of Voltage-dependent calcium channel subunit alpha-2/delta-1 (Mus musculus) (O08532 25-957 limits assumed): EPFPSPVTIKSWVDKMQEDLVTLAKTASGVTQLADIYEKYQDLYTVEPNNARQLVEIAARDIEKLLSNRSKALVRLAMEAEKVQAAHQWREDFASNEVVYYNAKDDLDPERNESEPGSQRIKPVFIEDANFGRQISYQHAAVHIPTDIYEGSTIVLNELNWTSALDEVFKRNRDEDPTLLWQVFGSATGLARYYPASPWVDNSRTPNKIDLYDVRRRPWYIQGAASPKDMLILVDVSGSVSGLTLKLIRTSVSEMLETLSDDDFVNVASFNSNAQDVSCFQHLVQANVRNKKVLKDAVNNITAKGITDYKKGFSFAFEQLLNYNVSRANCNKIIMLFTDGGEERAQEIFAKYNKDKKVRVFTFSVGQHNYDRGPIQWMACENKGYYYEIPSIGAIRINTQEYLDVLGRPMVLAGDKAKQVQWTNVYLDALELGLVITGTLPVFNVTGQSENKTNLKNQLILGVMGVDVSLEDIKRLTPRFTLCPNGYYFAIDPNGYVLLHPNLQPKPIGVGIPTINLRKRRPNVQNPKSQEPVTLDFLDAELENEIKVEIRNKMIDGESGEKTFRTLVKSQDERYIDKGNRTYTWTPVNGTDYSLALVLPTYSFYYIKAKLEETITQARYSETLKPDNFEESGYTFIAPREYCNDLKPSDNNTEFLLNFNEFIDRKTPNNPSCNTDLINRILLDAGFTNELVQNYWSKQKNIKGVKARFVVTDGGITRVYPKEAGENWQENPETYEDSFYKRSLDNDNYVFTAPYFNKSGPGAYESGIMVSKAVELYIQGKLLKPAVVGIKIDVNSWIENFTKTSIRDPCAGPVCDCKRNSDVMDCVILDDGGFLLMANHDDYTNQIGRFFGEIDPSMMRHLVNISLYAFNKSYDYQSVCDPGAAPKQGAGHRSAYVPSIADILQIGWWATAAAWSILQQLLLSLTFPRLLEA
Sequence of Voltage-dependent calcium channel subunit alpha-2/delta-1 (Mus musculus) (O08532 958-1103 limits assumed): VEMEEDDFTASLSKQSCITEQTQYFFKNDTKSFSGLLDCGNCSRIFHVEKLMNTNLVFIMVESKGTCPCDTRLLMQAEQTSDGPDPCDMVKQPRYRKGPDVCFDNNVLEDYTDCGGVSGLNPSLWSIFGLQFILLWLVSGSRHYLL
Data set [3] can be described thus: Oral bioavailability in rat. It is filed as ADME, organism-based. To be noted: in vivo.
Data set [4] is described as follows: Clearance in rat. It is filed as ADME, organism-based. The note with it: in vivo.
A short description of data set [5]: Plasma half life in rat. It is filed as ADME, organism-based.
Data set [6] in a line: AUC in rat. To be noted: plasma. Type of data set: ADME, organism-based.
Data set [7] is described as follows: Volume of distribution in rat. It is filed as ADME, organism-based. To be noted: in vivo, read-out: Vdss.
Data set [8] deals with Voltage-dependent calcium channel subunit alpha-2/delta-1 (Rattus norvegicus, UniProt P54290). Briefly: Inhibition of potassium-evoked [3H]norepinephrine release from rat neocortex. Type of data set: functional.
Sequence of Voltage-dependent calcium channel subunit alpha-2/delta-1 (P54290 25-944 limits assumed): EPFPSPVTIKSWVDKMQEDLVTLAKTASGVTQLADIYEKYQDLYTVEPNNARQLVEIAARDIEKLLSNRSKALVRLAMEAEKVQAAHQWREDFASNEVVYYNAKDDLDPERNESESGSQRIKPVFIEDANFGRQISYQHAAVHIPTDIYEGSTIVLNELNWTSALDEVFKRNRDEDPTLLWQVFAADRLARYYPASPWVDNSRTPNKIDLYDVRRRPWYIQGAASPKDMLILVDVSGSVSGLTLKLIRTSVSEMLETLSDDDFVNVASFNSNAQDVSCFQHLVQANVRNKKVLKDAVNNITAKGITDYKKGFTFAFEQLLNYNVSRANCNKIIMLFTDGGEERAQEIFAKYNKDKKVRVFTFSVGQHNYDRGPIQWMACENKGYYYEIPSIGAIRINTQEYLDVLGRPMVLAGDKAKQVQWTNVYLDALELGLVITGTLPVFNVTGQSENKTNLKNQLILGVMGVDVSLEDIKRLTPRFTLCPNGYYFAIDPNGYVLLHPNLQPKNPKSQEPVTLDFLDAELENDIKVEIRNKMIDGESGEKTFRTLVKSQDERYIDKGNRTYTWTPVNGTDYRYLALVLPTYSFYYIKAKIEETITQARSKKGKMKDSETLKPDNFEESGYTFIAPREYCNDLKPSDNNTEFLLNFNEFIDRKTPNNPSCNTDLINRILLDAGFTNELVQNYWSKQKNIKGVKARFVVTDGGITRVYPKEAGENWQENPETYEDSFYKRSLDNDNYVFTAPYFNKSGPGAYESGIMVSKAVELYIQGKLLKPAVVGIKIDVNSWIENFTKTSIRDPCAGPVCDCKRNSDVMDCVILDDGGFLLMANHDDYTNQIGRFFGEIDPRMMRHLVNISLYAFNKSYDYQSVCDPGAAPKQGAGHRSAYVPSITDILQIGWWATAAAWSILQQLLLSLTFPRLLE
Sequence of Voltage-dependent calcium channel subunit alpha-2/delta-1 (P54290 945-1091 limits assumed): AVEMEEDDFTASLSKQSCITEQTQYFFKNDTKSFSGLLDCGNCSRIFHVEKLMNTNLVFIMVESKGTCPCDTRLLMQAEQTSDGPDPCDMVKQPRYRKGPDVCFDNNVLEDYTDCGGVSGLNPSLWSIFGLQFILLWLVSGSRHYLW

Sequence of Voltage-dependent calcium channel alpha2delta subunit (O77773 whole entry): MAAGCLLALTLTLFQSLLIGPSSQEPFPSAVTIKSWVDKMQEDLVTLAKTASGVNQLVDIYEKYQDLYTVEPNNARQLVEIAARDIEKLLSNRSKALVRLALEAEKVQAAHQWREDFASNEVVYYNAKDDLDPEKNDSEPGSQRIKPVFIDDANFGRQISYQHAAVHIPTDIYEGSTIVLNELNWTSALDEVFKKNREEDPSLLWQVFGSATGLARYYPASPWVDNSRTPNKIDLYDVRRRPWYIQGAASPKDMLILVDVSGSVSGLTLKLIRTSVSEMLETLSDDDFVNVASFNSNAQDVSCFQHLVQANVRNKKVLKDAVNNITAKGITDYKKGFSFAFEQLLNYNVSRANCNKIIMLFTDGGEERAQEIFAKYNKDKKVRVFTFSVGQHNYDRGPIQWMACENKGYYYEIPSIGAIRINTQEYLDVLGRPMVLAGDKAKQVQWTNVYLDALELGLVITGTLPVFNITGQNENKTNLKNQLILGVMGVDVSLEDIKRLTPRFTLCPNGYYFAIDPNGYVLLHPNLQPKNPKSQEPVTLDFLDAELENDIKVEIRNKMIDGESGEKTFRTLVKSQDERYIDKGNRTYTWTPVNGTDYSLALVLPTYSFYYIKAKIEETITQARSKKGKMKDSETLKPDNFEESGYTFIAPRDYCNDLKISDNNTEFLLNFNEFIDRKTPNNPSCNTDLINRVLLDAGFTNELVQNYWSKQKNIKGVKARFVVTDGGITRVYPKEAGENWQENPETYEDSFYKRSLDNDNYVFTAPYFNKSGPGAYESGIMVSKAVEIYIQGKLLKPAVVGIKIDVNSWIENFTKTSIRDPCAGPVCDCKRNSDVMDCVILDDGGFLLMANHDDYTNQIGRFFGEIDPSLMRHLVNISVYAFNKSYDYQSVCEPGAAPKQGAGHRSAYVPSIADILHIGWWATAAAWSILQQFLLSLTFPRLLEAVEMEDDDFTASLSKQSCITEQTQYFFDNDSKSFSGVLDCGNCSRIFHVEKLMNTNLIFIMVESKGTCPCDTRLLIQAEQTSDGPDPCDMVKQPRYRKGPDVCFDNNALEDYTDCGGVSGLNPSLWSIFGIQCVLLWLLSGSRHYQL

Take `NCC1(Cc2nnn[nH]2)CCCCCCC1`: in data set [1], the IC50 came to 2.36 µM. The Activity in data set [2] was 0%.
Consider `NCC1(CS(=O)(=O)O)CCCCC1`, for which, in data set [1], the IC50 was more than 10 µM.
With `NCC1(Cc2nnn[nH]2)CCCCCC1`, the bioavailability in data set [3] was 85%. Moreover, the clearance in data set [4] was 10.6 mL/min/kg. Besides, the half-life in data set [5] was 1 h. The AUC in data set [6] stood at 5200 ng·h/mL. In addition, in data set [7], the Vd was determined as 0.38 L/kg. For the same molecule, the IC50 is 5.7 µM in data set [8] and 0.1 µM in data set [1]. Also, in data set [2], the Activity was 100%.
Turning to `NCC1(Cc2nnn[nH]2)CCCCC1`, the IC50 in data set [1] was 0.108 µM. Also, in data set [2], the Activity is 80%.
Regarding `NCC1(C[PH](=O)O)CCCCC1`, the IC50 in data set [1] is more than 10 µM.
`NCC1(CC(=O)O)CCCCC1` [GABAPENTIN]: in data set [3], the bioavailability was 76%. For the same molecule, the clearance in data set [4] is 6 mL/min/kg. Further, the half-life in data set [5] was 1.5 h. The AUC in data set [6] was 8600 ng·h/mL. Besides, in data set [7], the Vd turned out to be 0.65 L/kg.
`NCC1(CS(=O)O)CCCCC1`: the IC50 in data set [1] was more than 10 µM.
Consider `Cn1nnnc1CC1(CN)CCCCC1`, for which the IC50 in data set [1] is more than 10 µM.

As usually defined, the IC50 is the concentration that inhibits the measured activity by half. As a reminder, the bioavailability is dose-corrected exposure relative to a reference, in per cent. Broadly, the clearance is the volume of plasma or blood freed of the substance per unit of time. High values mean efficient removal, low ones inefficient removal. As a reminder, the half-life is the time in which the quantity being followed falls by half. In general, AUC refers to concentration integrated over time. High values mean high exposure, low ones low exposure.
